The target in the test is T1, human mGlu 5a receptor (Homo sapiens, UniProt P41594).
T1 construct: expressed in transfected cells; host or cells: EBNA cells (transient transfection); cell membrane homogenates
Description: [3H]MPEP competition binding on membranes of EBNA cells transiently transfected with human mGlu 5a receptor. The method, then:
Cell membrane homogenates were stored at −80° C. until the day of assay where upon they were thawed and resuspended and polytronised in 15 mM Tris-HCl, 120 mM NaCl, 100 mM KCl, 25 mM CaCl2, 25 mM MgCl2 binding buffer at pH 7.4 to a final assay concentration of 20 μg protein/well.
Competition experiments were performed with a fixed concentration of [^3H]MPEP (2 nM) and IC50 values of test compounds evaluated using 11 concentrations (0.3-10,000 nM).
Nonspecific binding was measured in the presence of 10 μM MPEP. The radioactivity on the filter was counted (3 min) on a Packard Top-count microplate scintillation counter with quenching correction after addition of 45 μl of microscint 40 (Canberra Packard S.A., Zürich, Switzerland) and shaking for 20 min.
The Ki value is defined by the following formula: Ki=IC50/[1+L/Kd] in which the IC50 values are those concentrations of the compounds tested which cause 50% inhibition of the competing radioligand ([^3H]MPEP). L is the concentration of radioligand used in the binding experiment and the Kd value of the radioligand is empirically determined for each batch of membranes prepared.

[1] abbreviates: competition with [3H]MPEP (2 nM), 1 h at 4° C., pH 7.4, Ki=IC50/[1+L/Kd].

Read-outs that look alike come from different tables or passages of the source.

T1 sequence (P41594 21-1180 isoform P41594-2 limits assumed): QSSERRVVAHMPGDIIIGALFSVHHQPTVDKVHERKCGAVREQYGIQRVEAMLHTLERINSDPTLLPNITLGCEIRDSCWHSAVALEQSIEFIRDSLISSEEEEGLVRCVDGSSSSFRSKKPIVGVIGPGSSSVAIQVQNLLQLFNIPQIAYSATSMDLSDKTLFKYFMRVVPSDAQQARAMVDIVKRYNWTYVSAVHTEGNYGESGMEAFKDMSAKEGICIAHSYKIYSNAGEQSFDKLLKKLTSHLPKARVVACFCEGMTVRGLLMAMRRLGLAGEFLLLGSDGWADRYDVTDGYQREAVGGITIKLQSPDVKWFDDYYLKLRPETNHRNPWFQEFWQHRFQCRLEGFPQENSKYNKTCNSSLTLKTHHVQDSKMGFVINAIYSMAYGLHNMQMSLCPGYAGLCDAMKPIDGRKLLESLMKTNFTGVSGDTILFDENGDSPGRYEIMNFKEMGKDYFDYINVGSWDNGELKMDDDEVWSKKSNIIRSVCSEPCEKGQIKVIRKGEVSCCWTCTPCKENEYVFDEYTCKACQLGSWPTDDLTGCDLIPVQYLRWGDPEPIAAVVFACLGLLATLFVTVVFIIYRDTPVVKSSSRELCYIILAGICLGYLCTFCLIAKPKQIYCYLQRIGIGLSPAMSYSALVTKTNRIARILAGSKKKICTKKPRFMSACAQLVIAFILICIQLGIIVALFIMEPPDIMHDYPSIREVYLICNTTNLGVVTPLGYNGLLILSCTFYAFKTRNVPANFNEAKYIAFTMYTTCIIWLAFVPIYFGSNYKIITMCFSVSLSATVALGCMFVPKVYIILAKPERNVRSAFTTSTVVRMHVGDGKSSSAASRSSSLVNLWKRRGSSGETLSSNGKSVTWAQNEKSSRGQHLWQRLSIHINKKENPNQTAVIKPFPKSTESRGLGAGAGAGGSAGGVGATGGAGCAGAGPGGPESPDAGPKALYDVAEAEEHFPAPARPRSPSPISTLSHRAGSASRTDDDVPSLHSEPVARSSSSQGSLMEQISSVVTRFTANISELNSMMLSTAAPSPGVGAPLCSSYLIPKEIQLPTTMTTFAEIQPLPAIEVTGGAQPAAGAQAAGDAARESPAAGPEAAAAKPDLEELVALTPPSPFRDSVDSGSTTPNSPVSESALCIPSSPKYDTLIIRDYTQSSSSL

The term Ki denotes the dissociation constant of the complex between target and ligand, obtained from inhibition or displacement. For the compound `Cc1c(C#Cc2ccnc(Cl)c2)nn(C)c1-c1ccc(F)cc1` [Example 26, 2-Chloro-4-[5-(4-fluoro-phenyl)-1,4-dimethyl-1H-pyrazol-3-ylethynyl]-pyridine], the Ki under setting [1] is 6 nM.
Take `Cc1nc(C#Cc2ccnc(Cl)c2)c(C)n1-c1ccc(C(F)(F)F)cc1` [Example 13, 2-Chloro-4-[2,5-dimethyl-1-(4-trifluoromethyl-phenyl)-1H-imidazol-4-ylethynyl]-pyridine]: the Ki came to 14 nM.
In the case of `Cc1nc(C#Cc2ccnc(Cl)c2)c(C(F)F)n1-c1ccc(F)cc1` [Example 27, 2-Chloro-4-[5-difluoromethyl-1-(4-fluoro-phenyl)-2-methyl-1H-imidazol-4-ylethynyl]-pyridine], the Ki under setting [1] was found to be 42 nM.

The record behind these values is patent US8293916B2, “Diazole derivatives” (Hoffmann-La Roche Inc., priority 2004, dated 2012).
